Several values for one entry are separate records, joined by “and”; a condition that tells them apart may be missing. Identical values can stand only once.
Legend:
[1] = tested on: Balb/c mice; assay: In vivo expression by IV, 0.05 mg/kg luciferase RNA-LNPs, IVIS luminescence; conditions: Formulation No. 001, RNA No. 331; female Balb/c mice, 0.05 mg*kg−1 intravenous, 24-hours post injection
Summary of the method: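 Female Balb/c mice (7-8 weeks, N=3) received 0.05 mg*kg−1 firefly-luciferase RNA-LNPs IV. Luciferin (15 mg/ml) was given IP at 24 and 72 h post-dose for IVIS whole-body luminescence. A second run imaged whole body, liver and spleen at 24 h only.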

[2] = tested on: MCP-1; assay: In vivo tolerability by IV: serum MCP-1 by Luminex; parameters: species or system C57BL/6J mice; conditions: Formulation No. 001, RNA No. 331, male C57BL/6J mice, 1.0 mg*kg/1 intravenous; for MCP-1 at 2 h: 2 hours post injection; for MCP-1 at 24 h: 24 hours post injection
Summary of the method: (§1)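 Male C57BL/6J mice aged 6-8 weeks (N=3) received 1.0 mg*kg−1 firefly-luciferase RNA-LNPs intravenously, with PBS as negative control. Serum taken at 2 and 24 h post-injection was assayed for MCP-1 and IL-6 by Luminex.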

[3] = tested on: C57BL/6J mice; assay: In vivo expression by IV, 1.0 mg/kg luciferase RNA-LNPs, whole-body and organ IVIS luminescence; conditions: Formulation No. 001, RNA No. 331; male C57BL/6J mice, 1.0 mg*kg−1 intravenous, 24-hours post injection
Summary of the method: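 Male C57BL/6J mice, 6-8 weeks old (N=3), received 1.0 mg*kg−1 firefly-luciferase RNA-LNPs IV. At 24 h post-dose, luciferin (15 mg/ml) was given IP, and whole-body, liver, spleen, kidney, small and large intestine luminescence was imaged by IVIS.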

[4] = RNA encapsulation efficacy (EE %) by Quant-IT Ribogreen kit; type: physicochemical; conditions: LNP
Description: (§2) The LNP size and polydispersity index (PDI), determined by dynamic light scattering (DLS), and zeta potential were measured by a Zetasizer machine (Malvern). RNA concentration and encapsulation efficacy (EE %) were analyzed by the Quant-IT Ribogreen kit by calculating the percentage encapsulation at 100%—(RNA-LNPs/RNA-LNPs with Triton X-100).

[5] = LNP size and polydispersity index (PDI) by dynamic light scattering (Zetasizer); type: physicochemical; conditions: for Size (nm): Formulation No. 001 (Ionizable lipid:DSPC:cholesterol:DMG-PEG2000 = 50:10:38.5:1.5, N/P 6), RNA No. 331
Description: as §2

[6] = tested on: Hep G2 cells; assay: In vitro toxicity: Hep G2 cell viability by CellTiter-Glo; type: cell-based; conditions: Formulation No. 001, RNA No. 331, 1 μg/mL RNA-LNPs, 72 hours post transfection, cell only = 100%
Description: 2E5 Hep G2 cells were transfected with 1 μg/mL RNA-LNPs. At 72 hours post transfection, cell viability (2-well repeat) was determined with the CellTiter-Glo® reagent kit, according to the kit protocol, measured by a luminometer. Cell only as control (100%).
The cell viability was calculated according to the following formula: […]

[7] = tested on: IL-6; assay: In vivo tolerability by IV: serum IL-6 by Luminex; parameters: species or system C57BL/6J mice; conditions: Formulation No. 001, RNA No. 331, male C57BL/6J mice, 1.0 mg*kg/1 intravenous; for IL-6 at 2 h: 2 hours post injection; for IL-6 at 24 h: 24 hours post injection
Summary of the method: as §1

[8] = In vivo lipid metabolism by IV: ionizable lipid concentration in plasma and liver by LC-MS/MS; parameters: species or system Sprague-Dawley (SD) rats; conditions: IV 0.15 mg/kg RNA-LNPs (hEPO), male SD rats, individual animals N=3; for concentration at 6 h: male, Sprague-Dawley, rat, liver, iv, 0.15 mg/kg, read-out: Liver (ng/g), ionizable lipid concentration
Description: In Vivo Lipid Metabolism by IV 7-8 week old, male Sprague-Dawley (SD) rats (N=3) were injected with 0.15 mg*kg−1 of RNA-LNPs encoding for hEPO by intravenous injection. At 1-/6-/96-/168-hours post injection, about 100 μL blood will be harvested and immediately added to the EDTAK2 containing tube. Place on wet ice and then centrifuged at 3000 g×5 min to obtain plasma. 30 μL plasma will be aliquoted to the 1.5 mL tubes. At terminal 6-/168-hours post injection, the rats will be euthanized with CO2, hemorrhaged immediately with cardiac puncture, respectively. The livers were harvested, weighed and washed with saline, then put into 50 ml centrifuge tube placed in liquid nitrogen, then transferred into wet ice, and finally stored at −80° C. immediately. Both plasma and liver samples were used for ionizable lipid concentration quantification by LC-MS/MS. The lower limit of quantitation (LLOQ) is 1 ng/mL in plasma or 11 ng/g in liver. BQL—Below the lower limit of quantitation (LLOQ).

[9] = tested on: Hep G2 cells; assay: In vitro expression: luciferase activity in Hep G2 cells transfected with RNA-LNPs; type: cell-based; conditions: Formulation No. 001, RNA No. 331 (firefly-luciferase), 100 ng/mL RNA-LNPs, 72 hours post transfection
Description: 2E5 Hep G2 cells were transfected with 100 ng/mL of RNA-LNPs encoding for firefly-luciferase. At 72 hours post transfection, the cells were washed and lysed. The luciferase expression (2-well repeat) was determined in the cell lysates with the luciferase assay reagent kit (Promega), according to the kit protocol, luciferase activity was measured by a luminometer.

[10] = Formulation No. 001, RNA No. 019 (hEPO)
[11] = Formulation No. 001, RNA No. 331

Row | Structure (SMILES) | Liver (p/s) (Mean) [1] | Spleen (p/s) (Mean) [1] | Whole body (p/s) (Mean) [1] | MCP-1 at 2 h [2] [pg/mL] | MCP-1 at 24 h [2] [pg/mL] | Kidney (p/s) [3] [p/s] | Large intestine (p/s) [3] [p/s] | Liver (p/s) [3] [p/s] | Small intestine (p/s) [3] [p/s] | Spleen (p/s) [3] [p/s] | Whole body (p/s) [3] [p/s] | EE (%) [4, 10] [%] | EE (%) [4, 11] [%] | Size (nm) [5] [nm] | PDI [5, 10] | PDI [5, 11] | In vitro cell viability (%) (Mean) [6] | IL-6 at 2 h [7] [pg/mL] | IL-6 at 24 h [7] [pg/mL] | In vitro Expression (Mean) [9] | other results
1 | CCCCC/C=C\C/C=C\CCCCCCCCOC(=O)NC(COC(=O)NCCN1CCCCCC1)C(=O)OCCCCCC(=O)OCC(CCCCCCCC)CCCCCCCCCC (stereo not drawn) [Lipid 911] | 5.42E+08 | 1.27E+08 | 1.17E+09 | 2000 | 254 | 3.75E+07 | 8.42E+07 | 7.97E+09 | 6.47E+08 | 8.51E+08 | 7.27E+09 | 94.15 | 98.24 | 64.33 | 0.05 | 0.03 | 81.84 | 28.5 | 4.43 | 5.01E+05 | Size [5, 10]: 58.16 nm; Plasma (ng/mL), ionizable lipid concentration ([8]; 1 h post injection): 7622 ng/mL and 5572 ng/mL and 3130 ng/mL; Liver (ng/g), ionizable lipid concentration ([8]; 6 h post injection): 29536 ng/g and 35435 ng/g; Plasma (ng/mL), ionizable lipid concentration ([8]; 6 h post injection): 298 ng/mL and 2.59 ng/mL and 3.41 ng/mL; Liver (ng/g), ionizable lipid concentration ([8]; 168 h post injection): 890 ng/g and 1331 ng/g and 618 ng/g; concentration at 6 h ([8]; 6 h post injection): 29400 ng/g
2 | CCCCCCCCCCCOC(=O)CCCCCOC(=O)C(COC(=O)NCCN1CCCCCC1)NC(=O)OCCCCCCCCOC(=O)C(CCCCCC)CCCCCCCC (stereo not drawn) [Lipid 924] | 9.02E+08 | 2.37E+08 | 3.08E+09 | 1390 | 207 | 3.17E+07 | 3.25E+08 | 5.23E+09 | 7.18E+08 | 1.13E+09 | 4.40E+09 | 90.41 | 90.24 | 78.20 | 0.16 | 0.05 | 89.34 | 47.1 | 5.9 | 6.15E+05 | Size [5, 10]: 87.04 nm; Plasma (ng/mL), ionizable lipid concentration ([8]; 1 h post injection): 5572 ng/mL and 3130 ng/mL and 7622 ng/mL; Liver (ng/g), ionizable lipid concentration ([8]; 6 h post injection): 1864 ng/g and 1834 ng/g; Plasma (ng/mL), ionizable lipid concentration ([8]; 6 h post injection): 2.59 ng/mL and 3.41 ng/mL and 298 ng/mL; concentration at 6 h ([8]; 6 h post injection): 1410 ng/g
3 | CCCCC/C=C\C/C=C\CCCCCCCCOC(=O)NC(COC(=O)NCCN1CCCCCC1)C(=O)OCCCCCCCOC(=O)CCCCCCCCC (stereo not drawn) [Lipid 944] | 5.10E+08 | 1.31E+08 | 1.29E+09 | 3640 | 161 | 1.54E+07 | 5.53E+07 | 5.27E+08 | 1.93E+08 | 4.76E+08 | 1.06E+09 |  | 90.80 | 86.75 |  | 0.17 | 95.62 | 432 | 2.5 | 3.60E+05 | 
4 | CCCCC/C=C\CCOC(=O)CCCCCOC(=O)C(COC(=O)NCCN1CCCCC1)NC(=O)OCCCCCCCCOC(=O)C(CCCCCC)CCCCCCCC (stereo not drawn) [Lipid 954] | 8.01E+08 | 9.82E+07 | 2.71E+09 | 4780 | 789 | 1.53E+08 | 9.03E+08 | 3.01E+09 | 1.69E+09 | 7.74E+08 | 1.08E+10 |  | 88.46 | 83.18 |  | 0.01 | 93.41 | 4220 | 8.87 | 4.78E+05 | 
5 | CCCCC/C=C\C/C=C\CCCCCCCCOC(=O)NC(COC(=O)NCCN1CCCCCC1)C(=O)OCCCCCCCCCC(=O)OCCCCCCC (stereo not drawn) [Lipid 959] | 1.07E+09 | 2.04E+08 | 3.16E+09 | 1760 | 176 | 1.10E+07 | 3.10E+07 | 1.10E+09 | 1.43E+08 | 4.52E+08 | 7.04E+08 |  | 95.49 | 91.09 |  | 0.13 | 96.03 | 78.7 | 1.8 | 2.95E+05 | 
